# Species: Rattus norvegicus
# Assay: Open TG-GATES - Regimen: Single
# Format: toxicity, organism-based, Sprague-Dawley
# Set-up: regimen Single, gender Male, age 6 weeks
# Conditions: in vivo, po, route gavage; for APTT / Bas / Eos / Fbg / Hb / Ht / Lym / MCH / MCHC / MCV / Mono / Neu / PT / Plat / Ret / WBC: tissue Blood; for KIDNEY_L / KIDNEY_R / KIDNEY_TOTAL: tissue Kidney; for LIVER: tissue Liver; for ALP / ALT / AST / BUN / CRE / Ca / DBIL / GLC / IP / K / LDH / Na / PL / RALB / TBIL / TC / TG / TP / gamma-GTP: tissue Plasma
smiles,measurement,setting,value
CN(C)CCCN1c2ccccc2CCc2ccc(Cl)cc21 [CLOMIPRAMINE],APTT,"10 mg/kg, 3 h, dose level Low",17.9 s
same,Bas,"10 mg/kg, 3 h, dose level Low",0.4%
same,Eos,"10 mg/kg, 3 h, dose level Low",1%
same,Fbg,"10 mg/kg, 3 h, dose level Low",240 mg/dL
same,Hb,"10 mg/kg, 3 h, dose level Low",14 g/dL
same,Ht,"10 mg/kg, 3 h, dose level Low",43.3%
same,Lym,"10 mg/kg, 3 h, dose level Low",81%
same,MCH,"10 mg/kg, 3 h, dose level Low",20.7 pg
same,MCHC,"10 mg/kg, 3 h, dose level Low",32.4%
same,MCV,"10 mg/kg, 3 h, dose level Low",63.9 fL
same,Mono,"10 mg/kg, 3 h, dose level Low",3.4%
same,Neu,"10 mg/kg, 3 h, dose level Low",13.8%
same,PT,"10 mg/kg, 3 h, dose level Low",13.5 s
same,Plat,"10 mg/kg, 3 h, dose level Low",129 x10_4/uL
same,Ret,"10 mg/kg, 3 h, dose level Low",7.8%
same,WBC,"10 mg/kg, 3 h, dose level Low",74.4 x10_2/uL
same,KIDNEY_L,"10 mg/kg, 3 h, dose level Low",1 g
same,KIDNEY_R,"10 mg/kg, 3 h, dose level Low",1 g
same,KIDNEY_TOTAL,"10 mg/kg, 3 h, dose level Low",1.9 g
same,LIVER,"10 mg/kg, 3 h, dose level Low",10 g
same,ALP,"10 mg/kg, 3 h, dose level Low",1810.4 IU/L
same,ALT,"10 mg/kg, 3 h, dose level Low",41.2 IU/L
same,AST,"10 mg/kg, 3 h, dose level Low",75.8 IU/L
same,BUN,"10 mg/kg, 3 h, dose level Low",9.8 mg/dL
same,CRE,"10 mg/kg, 3 h, dose level Low",0.2 mg/dL
same,Ca,"10 mg/kg, 3 h, dose level Low",10.7 mg/dL
same,DBIL,"10 mg/kg, 3 h, dose level Low",0.01 mg/dL
same,GLC,"10 mg/kg, 3 h, dose level Low",189 mg/dL
same,IP,"10 mg/kg, 3 h, dose level Low",9 mg/dL
same,K,"10 mg/kg, 3 h, dose level Low",4.3 meq/L
same,LDH,"10 mg/kg, 3 h, dose level Low",123 IU/L
same,Na,"10 mg/kg, 3 h, dose level Low",140.6 meq/L
same,PL,"10 mg/kg, 3 h, dose level Low",148.6 mg/dL
same,RALB,"10 mg/kg, 3 h, dose level Low",2.5 g/dL
same,TBIL,"10 mg/kg, 3 h, dose level Low",0.074 mg/dL
same,TC,"10 mg/kg, 3 h, dose level Low",76.2 mg/dL
same,TG,"10 mg/kg, 3 h, dose level Low",78 mg/dL
same,TP,"10 mg/kg, 3 h, dose level Low",5.2 g/dL
same,gamma-GTP,"10 mg/kg, 3 h, dose level Low",1.2 IU/L
same,TERMINAL_BW,"10 mg/kg, 6 h, dose level Low",215.1 g
same,APTT,"10 mg/kg, 6 h, dose level Low",17 s
same,Bas,"10 mg/kg, 6 h, dose level Low",0%
same,Eos,"10 mg/kg, 6 h, dose level Low",0.4%
same,Fbg,"10 mg/kg, 6 h, dose level Low",254.8 mg/dL
same,Hb,"10 mg/kg, 6 h, dose level Low",14 g/dL
same,Ht,"10 mg/kg, 6 h, dose level Low",43.7%
same,Lym,"10 mg/kg, 6 h, dose level Low",79.6%
same,MCH,"10 mg/kg, 6 h, dose level Low",21 pg
same,MCHC,"10 mg/kg, 6 h, dose level Low",32.1%
same,MCV,"10 mg/kg, 6 h, dose level Low",65.5 fL
same,Mono,"10 mg/kg, 6 h, dose level Low",3%
same,Neu,"10 mg/kg, 6 h, dose level Low",15.6%
same,PT,"10 mg/kg, 6 h, dose level Low",13.6 s
same,Plat,"10 mg/kg, 6 h, dose level Low",119.7 x10_4/uL
same,Ret,"10 mg/kg, 6 h, dose level Low",7.9%
same,WBC,"10 mg/kg, 6 h, dose level Low",81.1 x10_2/uL
same,KIDNEY_L,"10 mg/kg, 6 h, dose level Low",1 g
same,KIDNEY_R,"10 mg/kg, 6 h, dose level Low",1 g
same,KIDNEY_TOTAL,"10 mg/kg, 6 h, dose level Low",2 g
same,LIVER,"10 mg/kg, 6 h, dose level Low",9.3 g
same,ALP,"10 mg/kg, 6 h, dose level Low",1661 IU/L
same,ALT,"10 mg/kg, 6 h, dose level Low",39.4 IU/L
same,AST,"10 mg/kg, 6 h, dose level Low",78.4 IU/L
same,BUN,"10 mg/kg, 6 h, dose level Low",9.4 mg/dL
same,CRE,"10 mg/kg, 6 h, dose level Low",0.2 mg/dL
same,Ca,"10 mg/kg, 6 h, dose level Low",10.8 mg/dL
same,DBIL,"10 mg/kg, 6 h, dose level Low",0.01 mg/dL
same,GLC,"10 mg/kg, 6 h, dose level Low",189.8 mg/dL
same,IP,"10 mg/kg, 6 h, dose level Low",9.4 mg/dL
same,K,"10 mg/kg, 6 h, dose level Low",4.2 meq/L
same,LDH,"10 mg/kg, 6 h, dose level Low",93 IU/L
same,Na,"10 mg/kg, 6 h, dose level Low",140.8 meq/L
same,PL,"10 mg/kg, 6 h, dose level Low",149 mg/dL
same,RALB,"10 mg/kg, 6 h, dose level Low",2.5 g/dL
same,TBIL,"10 mg/kg, 6 h, dose level Low",0.072 mg/dL
same,TC,"10 mg/kg, 6 h, dose level Low",83.4 mg/dL
same,TG,"10 mg/kg, 6 h, dose level Low",52.2 mg/dL
same,TP,"10 mg/kg, 6 h, dose level Low",5.3 g/dL
same,gamma-GTP,"10 mg/kg, 6 h, dose level Low",1.4 IU/L
same,TERMINAL_BW,"10 mg/kg, 9 h, dose level Low",213 g
same,APTT,"10 mg/kg, 9 h, dose level Low",15.9 s
same,Bas,"10 mg/kg, 9 h, dose level Low",0%
same,Eos,"10 mg/kg, 9 h, dose level Low",0.6%
same,Fbg,"10 mg/kg, 9 h, dose level Low",267.6 mg/dL
same,Hb,"10 mg/kg, 9 h, dose level Low",13.5 g/dL
same,Ht,"10 mg/kg, 9 h, dose level Low",41.8%
same,Lym,"10 mg/kg, 9 h, dose level Low",78.8%
same,MCH,"10 mg/kg, 9 h, dose level Low",20.9 pg
same,MCHC,"10 mg/kg, 9 h, dose level Low",32.2%
same,MCV,"10 mg/kg, 9 h, dose level Low",64.8 fL
same,Mono,"10 mg/kg, 9 h, dose level Low",2.2%
same,Neu,"10 mg/kg, 9 h, dose level Low",17.4%
same,PT,"10 mg/kg, 9 h, dose level Low",14.1 s
same,Plat,"10 mg/kg, 9 h, dose level Low",130.4 x10_4/uL
same,Ret,"10 mg/kg, 9 h, dose level Low",8.4%
same,WBC,"10 mg/kg, 9 h, dose level Low",80 x10_2/uL
same,KIDNEY_L,"10 mg/kg, 9 h, dose level Low",1 g
same,KIDNEY_R,"10 mg/kg, 9 h, dose level Low",0.9 g
same,KIDNEY_TOTAL,"10 mg/kg, 9 h, dose level Low",1.9 g
same,LIVER,"10 mg/kg, 9 h, dose level Low",9 g
same,ALP,"10 mg/kg, 9 h, dose level Low",1512 IU/L
same,ALT,"10 mg/kg, 9 h, dose level Low",35.8 IU/L
same,AST,"10 mg/kg, 9 h, dose level Low",67.8 IU/L
same,BUN,"10 mg/kg, 9 h, dose level Low",10.4 mg/dL
same,CRE,"10 mg/kg, 9 h, dose level Low",0.2 mg/dL
same,Ca,"10 mg/kg, 9 h, dose level Low",10.7 mg/dL
same,DBIL,"10 mg/kg, 9 h, dose level Low",0.01 mg/dL
same,GLC,"10 mg/kg, 9 h, dose level Low",187.8 mg/dL
same,IP,"10 mg/kg, 9 h, dose level Low",10.2 mg/dL
same,K,"10 mg/kg, 9 h, dose level Low",4 meq/L
same,LDH,"10 mg/kg, 9 h, dose level Low",84.2 IU/L
same,Na,"10 mg/kg, 9 h, dose level Low",140.2 meq/L
same,PL,"10 mg/kg, 9 h, dose level Low",138.2 mg/dL
same,RALB,"10 mg/kg, 9 h, dose level Low",2.5 g/dL
same,TBIL,"10 mg/kg, 9 h, dose level Low",0.064 mg/dL
same,TC,"10 mg/kg, 9 h, dose level Low",75.2 mg/dL
same,TG,"10 mg/kg, 9 h, dose level Low",74 mg/dL
same,TP,"10 mg/kg, 9 h, dose level Low",5.3 g/dL
same,gamma-GTP,"10 mg/kg, 9 h, dose level Low",1.4 IU/L
same,TERMINAL_BW,"10 mg/kg, 24 h, dose level Low",228.6 g
same,APTT,"10 mg/kg, 24 h, dose level Low",17.7 s
same,Bas,"10 mg/kg, 24 h, dose level Low",0%
same,Eos,"10 mg/kg, 24 h, dose level Low",1%
same,Fbg,"10 mg/kg, 24 h, dose level Low",249 mg/dL
same,Hb,"10 mg/kg, 24 h, dose level Low",13.6 g/dL
same,Ht,"10 mg/kg, 24 h, dose level Low",42.5%
same,Lym,"10 mg/kg, 24 h, dose level Low",77%
same,MCH,"10 mg/kg, 24 h, dose level Low",20.8 pg
same,MCHC,"10 mg/kg, 24 h, dose level Low",32.1%
same,MCV,"10 mg/kg, 24 h, dose level Low",65 fL
same,Mono,"10 mg/kg, 24 h, dose level Low",3%
same,Neu,"10 mg/kg, 24 h, dose level Low",17.6%
same,PT,"10 mg/kg, 24 h, dose level Low",13.7 s
same,Plat,"10 mg/kg, 24 h, dose level Low",124 x10_4/uL
same,Ret,"10 mg/kg, 24 h, dose level Low",7.7%
same,WBC,"10 mg/kg, 24 h, dose level Low",85.9 x10_2/uL
same,KIDNEY_L,"10 mg/kg, 24 h, dose level Low",1.1 g
same,KIDNEY_R,"10 mg/kg, 24 h, dose level Low",1 g
same,KIDNEY_TOTAL,"10 mg/kg, 24 h, dose level Low",2.1 g
same,ALP,"10 mg/kg, 24 h, dose level Low",1661.4 IU/L
same,ALT,"10 mg/kg, 24 h, dose level Low",42.6 IU/L
same,AST,"10 mg/kg, 24 h, dose level Low",74.4 IU/L
same,BUN,"10 mg/kg, 24 h, dose level Low",13 mg/dL
same,CRE,"10 mg/kg, 24 h, dose level Low",0.2 mg/dL
same,Ca,"10 mg/kg, 24 h, dose level Low",10.8 mg/dL
same,DBIL,"10 mg/kg, 24 h, dose level Low",0.012 mg/dL
same,GLC,"10 mg/kg, 24 h, dose level Low",179.8 mg/dL
same,IP,"10 mg/kg, 24 h, dose level Low",8.1 mg/dL
same,K,"10 mg/kg, 24 h, dose level Low",4 meq/L
same,LDH,"10 mg/kg, 24 h, dose level Low",88 IU/L
same,Na,"10 mg/kg, 24 h, dose level Low",141.8 meq/L
same,PL,"10 mg/kg, 24 h, dose level Low",144.4 mg/dL
same,RALB,"10 mg/kg, 24 h, dose level Low",2.6 g/dL
same,TBIL,"10 mg/kg, 24 h, dose level Low",0.062 mg/dL
same,TC,"10 mg/kg, 24 h, dose level Low",73.8 mg/dL
same,TG,"10 mg/kg, 24 h, dose level Low",91.6 mg/dL
same,TP,"10 mg/kg, 24 h, dose level Low",5.4 g/dL
same,gamma-GTP,"10 mg/kg, 24 h, dose level Low",1 IU/L
same,TERMINAL_BW,"30 mg/kg, 3 h, dose level Middle",217.9 g
